We go through 1 molecule from PMC3160846 (PLoS ONE, 2011).

Bounds are passed on as bounds.

For orientation: IC50 means the midpoint of a concentration-inhibition curve.

Holding throughout (format): cell-based, Human
One assay has as its system HONE-1 cells. Put plainly: Clonogenic assay, HONE-1. The procedure: (§1) Human lung adenocarcinoma A549 cells and NTUB1 bladder cancer cells were maintained in RPMI supplied with 10% fetal bovine serum. […] KB-derived MRP1-expressing cell line, KB-7D, was maintained in growth medium supplemented with 7 µM VP-16.
(§2) Two hundred cells in logarithmic growth phase were seeded in a 6-well plate. The cells were exposed to various concentrations of the test drugs for a three-generation period. At the end of the incubation period, cells were fixed and stained with 50% ethanol containing 0.5% methylene blue for 30 min. The plates were washed five times with water and allowed to air-dry. Colonies were countered manually. […] Each value represents the average of at least three independent experiments run in triplicates.

For another assay, the system named is NTU0.017 cells. Put plainly: Clonogenic assay, NTU0.017. The protocol:
as §1, §2

The test system of the next assay is KB-VIN10 cells. Put plainly: Clonogenic assay, KB-VIN10. The procedure:
as §1, §2

The subject of the next assay is IM9 cells. Put plainly: Clonogenic assay, IM9. The procedure:
as §1, §2

Another assay has as its system HT29 cells. The assay can be described thus: Clonogenic assay, HT29. The procedure: as §1, §2
The subject of another assay is A549 cells. Put plainly: Clonogenic assay, A549. The protocol:
as §1, §2

Another assay concerns KB cells. The assay can be described thus: Clonogenic assay, KB. The protocol: as §1, §2
Another assay concerns NTUB1 cells. The assay can be described thus: Clonogenic assay, NTUB1. The procedure:
as §1, §2

The next assay deals with MV4-11 cells. The assay can be described thus: Clonogenic assay, MV4-11. The procedure: as §1, §2
The subject of the next assay is OECM-1 cells. Put plainly: Clonogenic assay, OECM-1. The procedure:
as §1, §2

In a further assay the test system is KB-S15 cells. Put plainly: Clonogenic assay, KB-S15. The procedure:
as §1, §2

Take `CO[C@@H](C(=O)N1Cc2n[nH]c(NC(=O)c3ccc(N4CCN(C)CC4)cc3)c2C1)c1ccccc1` [PHA-739358]: the “Fold difference as compare to the IC50 of BPR1K653” value with HONE-1 cells (HONE-1) worked out at 5 fold; in the assay on IM9 cells (IM9) it was 113 fold; in the assay with HT29 cells (HT29), 4 fold; in the assay with A549 cells (A549), 6 fold; in the assay on KB cells it was 33 fold; with NTUB1 cells (NTUB1), 51 fold. In addition, the “Fold difference as compare to the IC50 of BPR1K653” value in the assay with MV4-11 cells (MV4-11) is recorded as 17 fold; in the assay on OECM-1 cells (OECM-1), 5 fold. Also, the IC50 with HONE-1 cells (Homo sapiens, HONE1, HONE-1, oral, p53 mutant, MDR1 negative, read-out: IC50, anti-proliferative activity) was 59 ± 16 nM; in the assay on NTU0.017 cells (Homo sapiens, NTU0.017, paclitaxol resistant, MDR1 ↑, read-out: IC50, anti-proliferative activity), more than 50000 nM; in the assay with KB-VIN10 cells (Homo sapiens, KB-VIN10, vincristine resistant, MDR1 ↑, read-out: IC50, anti-proliferative activity) it was more than 25000 nM; in the assay on IM9 cells (Homo sapiens, IM9, lymphoma, p53 wild-type, MDR1 negative, read-out: IC50, anti-proliferative activity) it was 450 ± 12 nM; in the assay on HT29 cells (Homo sapiens, HT-29, HT29, colon, p53 mutant, MDR1 negative, read-out: IC50, anti-proliferative activity), 48 ± 8 nM; in the assay with A549 cells (Homo sapiens, A549, lung, p53 wild-type, MDR1 negative, read-out: IC50, anti-proliferative activity), 56 ± 8 nM. Further, the IC50 worked out at 400 ± 100 nM with KB cells (Homo sapiens, cervical, p53 wild-type, MDR1 negative (parental), read-out: IC50, anti-proliferative activity); 405 ± 134 nM with NTUB1 cells (Homo sapiens, NTUB1, bladder, MDR1 negative (parental), read-out: IC50, anti-proliferative activity); 86 ± 11 nM in the assay on MV4-11 cells (Homo sapiens, MV4-11, leukemia, p53 mutant, MDR1 negative, read-out: IC50, anti-proliferative activity); 642 ± 68 nM in the assay on OECM-1 cells (Homo sapiens, OECM1, OECM-1, oral, p53 mutant, MDR1 negative, read-out: IC50, anti-proliferative activity); 4700 nM with KB-S15 cells (Homo sapiens, KB-S15, paclitaxol resistant, MDR1 ↑, read-out: IC50, anti-proliferative activity). The “Fold difference as compare to the IC50 in the respective parental cells” value with NTU0.017 cells (NTU0.017 vs NTUB1) is reported as more than 123 fold; in the assay on KB-VIN10 cells (KB-VIN10 vs KB), more than 63 fold; in the assay on KB-S15 cells (KB-S15 vs KB) it was 12 fold.
